Assay results taken from patent publication US5162354A, “3-halo-5-halomethyl-2-oxazolidinones and their use as microbicides” (Buckman Laboratories International, Inc., priority 1991, dated 1992).
≈ marks a conversion by molar mass, not a printed value. Read-outs that look alike come from different tables or passages of the source.

What was measured:
Assay type in all cases: cell-based
Pseudomonas aeruginosa = assay: AOAC Disinfectant Swimming Pool Assay (Pseudomonas aeruginosa); details: 10 min, contact time 10 minutes, read-out: MIC (Minimum inhibitory concentration required to inhibit microorganisms)
Procedure: (§1) This example was based on the procedure described in AOAC (Association of Official Analytical Chemists) Official Methods of Analysis (1986) pp 75-77. The results obtained by this method are suitable for presumptive evidence of acceptability of products for disinfecting swimming pool water. The results obtained for Compound 1 in a contact time of 10 minutes are noted in Table IV.

Streptococcus faecalis [1] = assay: AOAC Disinfectant Swimming Pool Assay (Streptococcus faecalis); details: Enterococcus faecalis, 10 min, contact time 10 minutes, read-out: MIC (Minimum inhibitory concentration required to inhibit microorganisms)
Procedure: as §1

Chlorococcum hypnosporum = assay: Growth inhibiting activity against algae in Difco Algae Broth (Chlorococcum hypnosporum); details: 672 h, pH 7, read-out: Minimum inhibitory concentration against algae
Procedure: (§2) The growth inhibiting activity of the method of the invention against the three algae Chlorella pyrenoidosa, Chlorococcum hypnosporum and Phormidium inundatum was evaluated in Difco Algae Broth, the content of which was as follows:
(§3) Forty-gram portions of the algae medium were added to 250 mL Pyrex Erlenmeyer flasks fitted with loose metal caps and then sterilized. Each of the following substances was then added to the flasks in the order listed:
(§4) 1. Sterile algae medium as required to bring the total weight of the contents of each flask to 50 grams, after allowing for all subsequent additions specified below.
(§5) 2. A solution of one of compounds 1-4 or of a control agent to be evaluated in each test, to give the concentration desired in parts per million by weight.
(§6) 3. Chlorella pyrenoidosa, Chlorococcum hypnosporum and Phormidium inundatum in amounts sufficient to give excellent growth in the controls after 14 days. This was achieved by adding 1 milliliter of a 14 day old culture having luxuriant growth. The Chlorella pyrenoidosa culture was obtained from American Type Culture Collection No. 7516; Chlorococcum hypnosporum, from the University of TX at Austin; and Phormidium inundatum, WI No. 1093, from the University of WA.
(§7) As a control experiment, WSCP was used as a positive control agent. WSCP is a known toxicant which kills C. pyrenoidosa at 2 ppm, C. hypnosporum at 2ppm, and P. inundatum at 10 ppm. Control experiments were also carried out where no toxicants were employed. In the algicidal tests, the growth of algae in the nutrient medium is lush green and can be seen with the naked eye. Because the minimum inhibitory concentrations of the compounds in this example are those which result in complete inhibition, evaluation of the test results is not subjective.
(§8) After the inoculum of the test algae was added, the flasks were incubated at a temperature of 28°±2° C. under fluorescent illumination of 250 foot-candle intensity (8 hours light, 16 hours darkness) for a period adequate for growth in the controls (those portions of medium which contained no toxicant). Observations of growth were made at 7-day intervals. Minimum inhibitory concentrations are those that prevented complete growth after 28 days.

Chlorella pyrenoidosa = assay: Growth inhibiting activity against algae in Difco Algae Broth (Chlorella pyrenoidosa); details: Auxenochlorella pyrenoidosa, 672 h, pH 7, read-out: Minimum inhibitory concentration against algae
Procedure: as §2, §3, §4, §5, §6, §7, §8

Streptococcus faecalis [2] = assay: AOAC Germicidal and Detergent Sanitizing Action of Disinfectants (Streptococcus faecalis)
Procedure: This test is conducted according to AOAC methods described in AOAC Official Methods of Analysis (1984) p 70. This test is suitable for chemicals that can be permitted for use in sanitizing precleaned non-porous food contact surfaces. This test also determines the effectiveness of compounds tested in hard water. Most of the detergents/sanitizers available in the market become ineffective in the presence of hard water, i.e. water containing calcium and/or magnesium ions. A water hardness value of 400 ppm was chosen because it is considered to be the highest hardness value for tap water in the United States.

Escherichia coli = assay: AOAC Disinfectant Swimming Pool Assay (Escherichia coli); details: 10 min, contact time 10 minutes, read-out: MIC (Minimum inhibitory concentration required to inhibit microorganisms)
Procedure: as §1

[3] = test system: mixture of Staphylococcus aureus, Enterobacter aerogenes and Pseudomonas aeruginosa; assay: Long-term effectiveness in water as disinfectant, basal salts method, mixture of test organisms; details: 10 min, read-out: % Reduction (Kill)
Procedure: In order to test the effectiveness of the compounds of the present invention over a period of 15 days, the following experiment was conducted using Compound 1.
The basal salts method described in U.S. Pat. No. 2,881,070 at column 5, beginning at line 12 and extending to column 6, line 53 was performed at two different pH values and percent kills were obtained with a mixture of test organisms (Staphylococcus aureus, Enterobacter aerogenes and Pseudomonas aeruginosa). […] At 80 ppm, prolonged sanitizing ability is maintained (99% or greater) with prolonged exposure times (24 hours contact through 15 […] post-preparation in water).
^a Control indicates the population of the test organism and is used
to make sure there is vigorous growth and to calculate % kills.

[4] = pH 6, Day 1 after preparation in soft water, pH 6.0, 10 min contact
[5] = pH 6, Day 2 after preparation in soft water, pH 6.0, 10 min contact
[6] = pH 6, Day 3 after preparation in soft water, pH 6.0, 10 min contact
[7] = pH 6, Day 4 after preparation in soft water, pH 6.0, 10 min contact
[8] = pH 6, Day 5 after preparation in soft water, pH 6.0, 10 min contact
[9] = pH 6, Day 14 after preparation in soft water, pH 6.0, 10 min contact
[10] = pH 6, Day 15 after preparation in soft water, pH 6.0, 10 min contact
[11] = pH 8, Day 1 after preparation in soft water, pH 8.0, 10 min contact
[12] = pH 8, Day 2 after preparation in soft water, pH 8.0, 10 min contact
[13] = pH 8, Day 3 after preparation in soft water, pH 8.0, 10 min contact
[14] = pH 8, Day 4 after preparation in soft water, pH 8.0, 10 min contact
[15] = pH 8, Day 5 after preparation in soft water, pH 8.0, 10 min contact
[16] = pH 8, Day 14 after preparation in soft water, pH 8.0, 10 min contact

Molecule `O=C1OC(CCl)CN1Br` (stereo not drawn) [Compound 1, 3-Bromo-5-chloromethyl-2-oxazolidinone] has an MIC (Pseudomonas aeruginosa) of 100 µg/mL (≈ 466 µM), an MIC (Streptococcus faecalis [1]) of 80 µg/mL (≈ 373 µM) and an MIC (Chlorococcum hypnosporum) of 10 µg/mL (≈ 46.6 µM). For the same molecule, the MIC (Chlorella pyrenoidosa) was 10 µg/mL (≈ 46.6 µM), the MIC (Streptococcus faecalis [2]; Enterococcus faecalis, Soft Water, read-out: Minimum inhibitory concentration required to inhibit microorganisms) was 80 µg/mL (≈ 373 µM) and the “Minimum inhibitory concentration required to inhibit microorganisms” value (Streptococcus faecalis [2]; Hard Water (400 ppm calcium carbonate)) was 80 parts per million (w/v). The MIC (Escherichia coli) was 80 µg/mL (≈ 373 µM), the killing at 40 ppm [3, 4] was 100% and the killing at 80 ppm [3, 4] was 100%. The killing at 40 ppm [3, 5] was 100%, the killing at 80 ppm [3, 5] was 100% and the killing at 40 ppm [3, 6] was 100%. It also gave a killing at 80 ppm [3, 6] of 100%, a killing at 40 ppm [3, 7] of 38.8% and a killing at 80 ppm [3, 7] of 54.3%. It also gave a killing at 40 ppm [3, 8] of 26.8%, a killing at 80 ppm [3, 8] of 41.4% and a killing at 40 ppm [3, 9] of 40%. The killing at 80 ppm [3, 9] was 28.7%, the killing at 40 ppm [3, 10] was 39.3% and the killing at 80 ppm [3, 10] was 13.1%. The killing at 40 ppm [3, 11] was 100%, the killing at 80 ppm [3, 11] was 100% and the killing at 40 ppm [3, 12] was 100%. It also gave a killing at 80 ppm [3, 12] of 100%, a killing at 40 ppm [3, 13] of 100% and a killing at 80 ppm [3, 13] of 100%. It also gave a killing at 40 ppm [3, 14] of 34.2%, a killing at 80 ppm [3, 14] of 46% and a killing at 40 ppm [3, 15] of 51.8%. For the same molecule, the killing at 80 ppm [3, 15] was 51.8%, the killing at 40 ppm [3, 16] was 69.5% and the killing at 80 ppm [3, 16] was 83.8%.
